{"source": "patent US6518456B1", "about": "“Process for the production of 1-(aminomethyl)-cyclohexyl-acetic acid in pure form” (Procos S.p.A., priority 2001, dated 2003)", "origin": "cited, not measured here", "conditions": "extremely low toxicity; species and route not given", "data": [{"smiles": "NCC1(CC(=O)O)CCCCC1", "note": "[Gabapentin, 1-(aminomethyl)cyclohexyl-acetic acid]", "values": [{"measurement": "LD50", "value": "> 8000", "unit": "mg/kg"}]}]}
